{"source": "patent US20260152527A1", "about": "“NOVEL MELANOCORTIN ANALOGS” (priority 2022, published 2026)", "experiment": "In vivo topical administration pharmacokinetics of K173, rabbit (aqueous humor, cornea)", "conditions": "for level at 0.5 h / level at 1 h / level at 2 h / level at 4 h / level at 8 h / level at 24 h: aqueous humor, topical or ocular; for level at 0.5 h: 30 Min post-last dose; for level at 1 h: 1 hr post-last dose; for level at 2 h: 2 hr post-last dose; for level at 4 h: 4 hr post-last dose; for level at 8 h: 8 hr post-last dose; for level at 24 h: 24 hr post-last dose", "description": "Animals were not tranquilized for the examinations.\nThe remaining ocular tissues were discarded. Ocular samples were stored −80° C.\nThe rabbit efficacy model can be used to determine if QD or BID dosing is optimal for clinical utility.", "key": {"[1]": {"conditions": "5 mg/ml solution, 35 L per eye, Group 1 (single dose), topical 5 mg/ml, OD, Mean, read-out: K173 Concentrations (ng/mL) in Rabbit Aqueous Humor OD Sample, Mean"}, "[2]": {"conditions": "5 mg/ml solution, 35 L per eye, Group 1 (single dose), topical 5 mg/ml, OS, Mean, read-out: K173 Concentrations (ng/mL) in Rabbit Aqueous Humor OS Sample, Mean"}, "[3]": {"conditions": "5 mg/ml solution, 35 L per eye, Group 2 (4 doses), topical 5 mg/ml, OD, Mean, read-out: K173 Concentrations (ng/mL) in Rabbit Aqueous Humor OD Sample, Mean"}, "[4]": {"conditions": "5 mg/ml solution, 35 L per eye, Group 2 (4 doses), topical 5 mg/ml, OS, Mean, read-out: K173 Concentrations (ng/mL) in Rabbit Aqueous Humor OS Sample, Mean"}, "[5]": {"conditions": "5 mg/ml solution, 35 L per eye, Group 3 (8 BID doses), topical 5 mg/ml, OD, Mean, read-out: K173 Concentrations (ng/mL) in Rabbit Aqueous Humor OD Sample, Mean"}, "[6]": {"conditions": "5 mg/ml solution, 35 L per eye, Group 3 (8 BID doses), topical 5 mg/ml, OS, Mean, read-out: K173 Concentrations (ng/mL) in Rabbit Aqueous Humor OS Sample, Mean"}, "[7]": {"conditions": "5 mg/ml, Group 1 (single dose), topical 5 mg/ml, OD, Mean, read-out: K173 Concentrations (ng/mL) in Rabbit Aqueous Humor OD Sample, Mean"}, "[8]": {"conditions": "5 mg/ml, Group 1 (single dose), topical 5 mg/ml, OS, Mean, read-out: K173 Concentrations (ng/mL) in Rabbit Aqueous Humor OS Sample, Mean"}, "[9]": {"conditions": "5 mg/ml, Group 1 (single dose), topical 5 mg/ml, OS, individual animals, read-out: K173 Concentrations (ng/mL) in Rabbit Aqueous Humor OS Sample"}, "[10]": {"conditions": "5 mg/ml, Group 2 (4 doses), topical 5 mg/ml, OD, Mean, read-out: K173 Concentrations (ng/mL) in Rabbit Aqueous Humor OD Sample, Mean"}, "[11]": {"conditions": "5 mg/ml, Group 2 (4 doses), topical 5 mg/ml, OS, Mean, read-out: K173 Concentrations (ng/mL) in Rabbit Aqueous Humor OS Sample, Mean"}, "[12]": {"conditions": "5 mg/ml, Group 2 (4 doses), topical 5 mg/ml, OD, individual animals, read-out: K173 Concentrations (ng/mL) in Rabbit Aqueous Humor OD Sample"}, "[13]": {"conditions": "5 mg/ml, Group 3 (8 BID doses), topical 5 mg/ml, OD, Mean, read-out: K173 Concentrations (ng/mL) in Rabbit Aqueous Humor OD Sample, Mean"}, "[14]": {"conditions": "5 mg/ml, Group 3 (8 BID doses), topical 5 mg/ml, OS, Mean, read-out: K173 Concentrations (ng/mL) in Rabbit Aqueous Humor OS Sample, Mean"}}, "note": "Where two headings read alike, the source gives them in different places. Positions of bridges follow the written chain, without caps; N, C: chain ends. Non-standard residues stand in square brackets, D forms with d. Residues, ends and D or L forms follow the SMILES beside them. Triazole bridges read from a SMILES are 1,4-linked. *: point of attachment. Benzoyl(3,5-(OH)2) = O=C(c1cc(O)cc(O)c1)*; Lys(N3) = [N-]=[N+]=NCCCC[C@H](N)C(=O)O; dPhe(4-F) = N[C@H](Cc1ccc(F)cc1)C(=O)O; Nle = CCCC[C@H](N)C(=O)O; Pra = C#CC[C@H](N)C(=O)O"}
{"compound": "CCCC[C@H](NC(=O)c1cc(O)cc(O)c1)C(=O)N[C@H]1CCCCn2cc(nn2)C[C@@H](C(N)=O)NC(=O)[C@H](Cc2c[nH]c3ccccc23)NC(=O)[C@H](CCCNC(=N)N)NC(=O)[C@@H](Cc2ccc(F)cc2)NC(=O)[C@H](Cc2c[nH]cn2)NC1=O", "note": "[KR-072, HyBA-Nle-[Lys(N3)-His-Dphe(4-F)-Arg-Trp-Pra]-NH2] ({Benzoyl(3,5-(OH)2)}-[Nle][Lys(N3)]H[dPhe(4-F)]RW[Pra]-NH2; triazole 2-7)", "values": [{"measurement": "level at 0.5 h", "setting": "[1]", "value": 8.44, "unit": "ng/mL"}, {"measurement": "level at 0.5 h", "setting": "[2]", "value": 1.36, "unit": "ng/mL"}, {"measurement": "level at 1 h", "setting": "[1]", "value": 1.13, "unit": "ng/mL"}, {"measurement": "level at 1 h", "setting": "[2]", "value": 5.22, "unit": "ng/mL"}, {"measurement": "level at 0.5 h", "setting": "[3]", "value": 1.9, "unit": "ng/mL"}, {"measurement": "level at 0.5 h", "setting": "[4]", "value": 3.47, "unit": "ng/mL"}, {"measurement": "level at 1 h", "setting": "[3]", "value": 2.75, "unit": "ng/mL"}, {"measurement": "level at 1 h", "setting": "[4]", "value": 2.49, "unit": "ng/mL"}, {"measurement": "level at 2 h", "setting": "[5]", "value": 10.5, "unit": "ng/mL"}, {"measurement": "level at 2 h", "setting": "[6]", "value": 12.1, "unit": "ng/mL"}, {"measurement": "level at 4 h", "setting": "[5]", "value": 11.6, "unit": "ng/mL"}, {"measurement": "level at 4 h", "setting": "[6]", "value": 7.33, "unit": "ng/mL"}, {"measurement": "level at 8 h", "setting": "[5]", "value": 5.92, "unit": "ng/mL"}, {"measurement": "level at 8 h", "setting": "[6]", "value": 6.42, "unit": "ng/mL"}, {"measurement": "level at 24 h", "setting": "[5]", "value": 3.79, "unit": "ng/mL"}, {"measurement": "level at 24 h", "setting": "[6]", "value": 4.45, "unit": "ng/mL"}, {"measurement": "level at 2 h", "setting": "[7]", "value": 3.58, "unit": "ng/mL"}, {"measurement": "level at 2 h", "setting": "[8]", "value": 1.89, "unit": "ng/mL"}, {"measurement": "level at 4 h", "setting": "[7]", "value": 2.68, "unit": "ng/mL"}, {"measurement": "level at 4 h", "setting": "5 mg/ml, Group 1 (single dose), topical 5 mg/ml, OD, individual animals, read-out: K173 Concentrations (ng/mL) in Rabbit Aqueous Humor OD Sample", "value": 2.94, "unit": "ng/mL"}, {"measurement": "level at 4 h", "setting": "[8]", "value": 3.35, "unit": "ng/mL"}, {"measurement": "level at 4 h", "setting": "[9]", "value": 3.56, "unit": "ng/mL"}, {"measurement": "level at 8 h", "setting": "[7]", "value": 5.77, "unit": "ng/mL"}, {"measurement": "level at 8 h", "setting": "[8]", "value": 4.2, "unit": "ng/mL"}, {"measurement": "level at 8 h", "setting": "[9]", "value": 3.34, "unit": "ng/mL"}, {"measurement": "level at 24 h", "setting": "[7]", "value": 3.22, "unit": "ng/mL"}, {"measurement": "level at 24 h", "setting": "[8]", "value": 2.46, "unit": "ng/mL"}, {"measurement": "level at 24 h", "setting": "[9]", "value": 2.34, "unit": "ng/mL"}, {"measurement": "level at 2 h", "setting": "[10]", "value": 5.76, "unit": "ng/mL"}, {"measurement": "level at 2 h", "setting": "[11]", "value": 7.84, "unit": "ng/mL"}, {"measurement": "level at 4 h", "setting": "[10]", "value": 4.61, "unit": "ng/mL"}, {"measurement": "level at 4 h", "setting": "[11]", "value": 3.86, "unit": "ng/mL"}, {"measurement": "level at 8 h", "setting": "[10]", "value": 10.9, "unit": "ng/mL"}, {"measurement": "level at 8 h", "setting": "[12]", "value": 11.3, "unit": "ng/mL"}, {"measurement": "level at 8 h", "setting": "[11]", "value": 14.8, "unit": "ng/mL"}, {"measurement": "level at 24 h", "setting": "[10]", "value": 1.98, "unit": "ng/mL"}, {"measurement": "level at 24 h", "setting": "[12]", "value": 2.34, "unit": "ng/mL"}, {"measurement": "level at 24 h", "setting": "[11]", "value": 2.33, "unit": "ng/mL"}, {"measurement": "level at 24 h", "setting": "5 mg/ml, Group 2 (4 doses), topical 5 mg/ml, OS, individual animals, read-out: K173 Concentrations (ng/mL) in Rabbit Aqueous Humor OS Sample", "value": 2.3, "unit": "ng/mL"}, {"measurement": "level at 0.5 h", "setting": "[13]", "value": 10.3, "unit": "ng/mL"}, {"measurement": "level at 0.5 h", "setting": "[14]", "value": 8.11, "unit": "ng/mL"}, {"measurement": "level at 1 h", "setting": "[13]", "value": 5, "unit": "ng/mL"}, {"measurement": "level at 1 h", "setting": "5 mg/ml, Group 3 (8 BID doses), topical 5 mg/ml, OD, individual animals, read-out: K173 Concentrations (ng/mL) in Rabbit Aqueous Humor OD Sample", "value": 5.13, "unit": "ng/mL"}, {"measurement": "level at 1 h", "setting": "[14]", "value": 6.56, "unit": "ng/mL"}, {"measurement": "level at 1 h", "setting": "5 mg/ml, Group 3 (8 BID doses), topical 5 mg/ml, OS, individual animals, read-out: K173 Concentrations (ng/mL) in Rabbit Aqueous Humor OS Sample", "value": 7.48, "unit": "ng/mL"}, {"measurement": "Aqueous humor levels 24 hours after last dose", "setting": "topical 5 mg/ml, all dose groups", "value": "measurable levels were detected after 24 hours in all dose groups"}, {"measurement": "ocular surface retention and Tmax", "setting": "topical, after a single dose", "value": "prolonged ocular surface retention and Tmax"}]}
